Source: patent US5527781A, “4-O-(aminoglycosyl)- or 4,6-di-O-(aminoglycosyl)-2,5-dideoxy-5,5-difluorostreptamine derivatives” (Zaidan Hojin Biseibutsu Kagaku Kenkyu Kai, priority 1990, dated 1996)
Values after ≈ are worked out from the molar mass of the structure shown. “Also recorded” adds a separate entry of the source.

Key:
bacteria = conditions: literature / earlier filings; cited from earlier work
[1] = tested on: Staphylococcus aureus 209P; test: MIC, standard serial dilution method; type: cell-based; conditions: Mueller-Hinton agar, 37° C
[2] = tested on: Staphylococcus aureus Ap01; test: MIC, standard serial dilution method; type: cell-based; conditions: resistance mechanism ANT(4'), Mueller-Hinton agar, 37° C
Bacillus subtilis PCI219 = test: MIC, standard serial dilution method; type: cell-based; conditions: Mueller-Hinton agar, 37° C
[3] = tested on: Corynebacterium bovis 1810; test: MIC, standard serial dilution method; type: cell-based; conditions: Mueller-Hinton agar, 37° C
Escherichia coli K-12 = test: MIC, standard serial dilution method; type: cell-based; conditions: K12; Escherichia coli K-12; Mueller-Hinton agar, 37° C; read-out: MIC
Escherichia coli K-12 R5 = test: microbe, parasite or virus in culture; type: cell-based; conditions: K12R5; Escherichia coli K-12 R5; resistance mechanism AAC(6'); Mueller-Hinton agar, 37° C
[4] = tested on: Escherichia coli K-12 ML 1629; test: microbe, parasite or virus in culture; type: cell-based; conditions: K12ML1629; Escherichia coli K-12 ML 1629; resistance mechanism APH(3')-I; Mueller-Hinton agar, 37° C; read-out: MIC
[5] = tested on: Escherichia coli K-12 LA 290 R55; test: microbe, parasite or virus in culture; type: cell-based; conditions: K12LA290R55; Escherichia coli K-12 LA 290 R55; resistance mechanism ANT(2"); Mueller-Hinton agar, 37° C
Escherichia coli JR225 = test: microbe, parasite or virus in culture; type: cell-based; conditions: resistance mechanism AAC(3), Mueller-Hinton agar, 37° C
[6] = tested on: Escherichia coli JR66/W677; test: microbe, parasite or virus in culture; type: cell-based; conditions: resistance mechanism APH(3')-II, ANT(2"), Mueller-Hinton agar, 37° C
Mycobacterium 607 = test: MIC, standard serial dilution method; type: cell-based; conditions: Mueller-Hinton agar, 37° C
[7] = tested on: Klebsiella pneumoniae 22#3038; test: MIC, standard serial dilution method; type: cell-based; conditions: resistance mechanism APH(3')-II, ANT(2"), Mueller-Hinton agar, 37° C
Proteus rettgeri GN 311 = test: MIC, standard serial dilution method; type: cell-based; conditions: Providencia rettgeri, GN311; Proteus rettgeri GN 311; Mueller-Hinton agar, 37° C; read-out: MIC
Serratia marcescens = test: MIC, standard serial dilution method; type: cell-based; conditions: Mueller-Hinton agar, 37° C
Providencia sp. Pv 16 = test: MIC, standard serial dilution method; type: cell-based; conditions: SP.PV16, resistance mechanism AAC(2'), Mueller-Hinton agar, 37° C
[8] = tested on: Pseudomonas aeruginosa A3; test: MIC, standard serial dilution method; type: cell-based; conditions: Mueller-Hinton agar, 37° C
[9] = tested on: Pseudomonas aeruginosa GN 315; test: MIC, standard serial dilution method; type: cell-based; conditions: GN315; Pseudomonas aeruginosa GN 315; resistance mechanism AAC(6'); Mueller-Hinton agar, 37° C; read-out: MIC
in vivo = conditions: mouse, iv, pH 7
Description: Further, in order to estimate acute toxicity of the compound of the general formula (I) according to this invention, some examples of the compounds of this invention were independently dissolved in water to prepare aqueous solutions (as adjusted to pH 7 by addition of hydrochloric acid). […] The tested compounds of this invention are expressed by the same abbreviations as in Table 1. […] The comparative compounds as tested are also expressed by the same abbreviations as in Table 1.

Compound: NC[C@H]1O[C@H](O[C@H]2[C@H](O)[C@@H](O[C@H]3O[C@H](CO)[C@@H](O)[C@H](N)[C@H]3O)[C@H](N)C[C@@H]2N)[C@H](F)C[C@@H]1O [2',3'-dideoxy-2'-fluorokanamycin A]
- antibacterial activity compared with parent (e.g. kanamycin A) (bacteria): improved antibacterial activities, as compared to those of their corresponding parent compounds

Compound: NC[C@@H]1C[C@H](F)[C@@H](N)[C@@H](O[C@H]2[C@H](O)[C@@H](O[C@H]3O[C@H](CO)[C@@H](O)[C@H](N)[C@H]3O)[C@H](N)C[C@@H]2N)O1 [3',4'-dideoxy-3'-fluorokanamycin B]
- antibacterial activity compared with parent (e.g. kanamycin A) (bacteria): improved antibacterial activities, as compared to those of their corresponding parent compounds

Compound: NC[C@H]1O[C@H](O[C@H]2[C@H](O)[C@@H](O[C@H]3O[C@H](CO)[C@@H](O)[C@H](N)[C@H]3O)[C@H](N)C[C@@H]2N)[C@H](O)[C@@H](F)[C@@H]1O [3'-deoxy-3'-fluorokanamycin A]
- antibacterial activity compared with parent (e.g. kanamycin A) (bacteria): improved antibacterial activities, as compared to those of their corresponding parent compounds

Compound: NC[C@H]1O[C@H](O[C@H]2[C@H](O)[C@@H](O[C@H]3O[C@H](CO)[C@@H](O)[C@H](N)[C@H]3O)[C@H](N)C[C@@H]2N)[C@H](N)[C@@H](F)[C@@H]1O [3'-deoxy-3'-fluorokanamycin B]
- antibacterial activity compared with parent (e.g. kanamycin A) (bacteria): improved antibacterial activities, as compared to those of their corresponding parent compounds; also recorded: remarkable antibacterial activities against various gram-positive and gram-negative bacteria, including the resistant bacteria

Compound: NC[C@H]1O[C@H](O[C@H]2[C@H](O)[C@@H](O[C@H]3O[C@H](CO)[C@H](F)[C@H](N)[C@H]3O)[C@H](N)C[C@@H]2N)[C@H](O)[C@@H](O)[C@@H]1O [4"-deoxy-4"-fluoro-4"-epi-kanamycin A]
- antibacterial activity compared with parent (e.g. kanamycin A) (bacteria): lower than that of kanamycin A

Compound: NC[C@H]1O[C@H](O[C@H]2[C@@H](F)[C@@H](O[C@H]3O[C@H](CF)[C@@H](O)[C@H](N)[C@H]3O)[C@H](N)C[C@@H]2N)[C@H](O)[C@@H](O)[C@@H]1O [5,6"-dideoxy-5,6"-difluoro-5-epi-kanamycin A]
- antibacterial activity compared with parent (e.g. kanamycin A) (bacteria): antibacterial activities substantially as high as that of kanamycin A

Compound: NC[C@H]1O[C@H](O[C@H]2[C@@H](F)[C@@H](O[C@H]3O[C@H](CO)[C@H](O)[C@H](N)[C@H]3O)[C@H](N)C[C@@H]2N)[C@H](O)[C@@H](O)[C@@H]1O [5-deoxy-5-fluoro-5,4"-di-epi-kanamycin A]
- antibacterial activity compared with parent (e.g. kanamycin A) (bacteria): antibacterial activities substantially as high as that of kanamycin A

Compound: NC[C@H]1O[C@H](O[C@H]2[C@H](O)[C@@H](O[C@H]3O[C@H](CF)[C@@H](O)[C@H](N)[C@H]3O)[C@H](N)C[C@@H]2N)[C@H](O)[C@@H](O)[C@@H]1O [6"-deoxy-6"-fluorokanamycin A]
- antibacterial activity compared with parent (e.g. kanamycin A) (bacteria): antibacterial activities substantially as high as that of kanamycin A

Compound: CN[C@@H]1[C@@H](O)[C@@H](O[C@@H]2[C@@H](O)[C@H](O[C@H]3O[C@H]([C@@H](C)N)CC[C@H]3N)[C@@H](N)C[C@H]2N)OC[C@]1(C)O [Genta-C2, gentamicin C2, reference compound]
- MIC [1]: < 0.2 µg/mL
- MIC [2]: 0.78 µg/mL (≈ 1.68 µM)
- MIC (Bacillus subtilis PCI219): < 0.2 µg/mL
- MIC [3]: 0.39 µg/mL (≈ 0.841 µM)
- MIC (Escherichia coli K-12): < 0.2 µg/mL
- MIC (Escherichia coli K-12 R5): 1.56 µg/mL (≈ 3.37 µM)
- MIC [4]: 0.39 µg/mL (≈ 0.841 µM)
- MIC [5]: 12.5 µg/mL (≈ 27 µM)
- MIC (Escherichia coli JR225): 6.25 µg/mL (≈ 13.5 µM)
- MIC [6]: 25 µg/mL (≈ 53.9 µM)
- MIC (Mycobacterium 607): 1.56 µg/mL (≈ 3.37 µM)
- MIC [7]: 12.5 µg/mL (≈ 27 µM)
- MIC (Proteus rettgeri GN 311): 0.2 µg/mL (≈ 0.431 µM)
- MIC (Serratia marcescens): 0.78 µg/mL (≈ 1.68 µM)
- MIC (Providencia sp. Pv 16): 6.25 µg/mL (≈ 13.5 µM)
- MIC [8]: 0.39 µg/mL (≈ 0.841 µM)
- MIC [9]: 3.12 µg/mL (≈ 6.73 µM)
- LD50 (in vivo): ~90 mg/kg

Compound: CCN[C@@H]1C[C@H](N)[C@@H](O[C@H]2OC(CN)=CC[C@H]2N)[C@H](O)[C@H]1O[C@H]1OC[C@](C)(O)[C@H](NC)[C@H]1O [Netilmicin, netilmicin, reference compound]
- MIC [1]: < 0.2 µg/mL
- MIC [2]: 0.78 µg/mL (≈ 1.64 µM)
- MIC (Bacillus subtilis PCI219): < 0.2 µg/mL
- MIC [3]: 1.56 µg/mL (≈ 3.28 µM)
- MIC (Escherichia coli K-12): < 0.2 µg/mL
- MIC (Escherichia coli K-12 R5): 50 µg/mL (≈ 105 µM)
- MIC [4]: 0.39 µg/mL (≈ 0.82 µM)
- MIC [5]: 0.39 µg/mL (≈ 0.82 µM)
- MIC (Escherichia coli JR225): 12.5 µg/mL (≈ 26.3 µM)
- MIC [6]: 0.39 µg/mL (≈ 0.82 µM)
- MIC (Mycobacterium 607): 1.56 µg/mL (≈ 3.28 µM)
- MIC [7]: 0.39 µg/mL (≈ 0.82 µM)
- MIC (Proteus rettgeri GN 311): 0.39 µg/mL (≈ 0.82 µM)
- MIC (Serratia marcescens): 6.25 µg/mL (≈ 13.1 µM)
- MIC (Providencia sp. Pv 16): 6.25 µg/mL (≈ 13.1 µM)
- MIC [8]: 0.39 µg/mL (≈ 0.82 µM)
- MIC [9]: > 100 µg/mL
- LD50 (in vivo): 30 mg/kg
